One assay relates to MOLM-13. In words: cells. The conditions noted are these: Homo sapiens.
A further assay deals with THP-1. The assay can be described thus: cells. The conditions noted are these: Homo sapiens.
Assay [1] is described as follows: cells. The conditions noted are these: Homo sapiens, MLL.
A further assay relates to MV4-11. The assay can be described thus: cells. Particulars: Homo sapiens.
Assay [2] is described as follows: cells. Particulars: Homo sapiens, MLL. This is another data set of the same source.

On to `CC(C)N(CCCNC(=O)Nc1ccc(C(C)(C)C)cc1)C[C@H]1O[C@@H](n2ccc3c(N)ncnc32)[C@H](O)[C@@H]1O`, for which the EC50 with MOLM-13 came out at 4 nM; with THP-1, 4 nM; in the assay “cells [1]” it was 700 nM; with MV4-11, 4 nM; in the assay “cells [2]”, 700 nM.

Take `CC(C)N(C[C@H]1O[C@@H](n2cnc3c(N)ncnc32)[C@H](O)[C@@H]1O)[C@H]1C[C@@H](CCc2nc3cc(C(C)(C)C)ccc3[nH]2)C1` [PINOMETOSTAT]: the EC50 with MOLM-13, with THP-1 and in the assay on MV4-11 was 4 nM throughout.

Usually EC50 stands for the midpoint of the concentration-response curve.
